Reference: patent EP4741397A1, “FUSED TRICYCLIC COMPOUND, AND PREPARATION METHOD THEREFOR AND USE THEREOF” (Shenzhen Zhongge Biological Technology Co., Ltd., priority 2023, dated 2025)
pIC50: −log10 of the molar value.

What was measured:
SARM1 = biological target: T1, SARM1 (Homo sapiens, UniProt Q6SZW1); assay: In vitro enzyme inhibition activity (SAM-TIR lysate, NAD/ADPR by HPLC-MS/MS); type: biochemical; settings: SAM-TIR lysate (SARM1 408-724) from NRK1-HEK293T cells; 25°C, 3 h with NAD
T1 construct: 408-724 expression plasmid and vector-control customized by SinoBio; host or cells: NRK1-HEK293T cells, transient transfection; crude clarified lysate used as the enzyme
T1 sequence (Q6SZW1 408-724 limits assumed): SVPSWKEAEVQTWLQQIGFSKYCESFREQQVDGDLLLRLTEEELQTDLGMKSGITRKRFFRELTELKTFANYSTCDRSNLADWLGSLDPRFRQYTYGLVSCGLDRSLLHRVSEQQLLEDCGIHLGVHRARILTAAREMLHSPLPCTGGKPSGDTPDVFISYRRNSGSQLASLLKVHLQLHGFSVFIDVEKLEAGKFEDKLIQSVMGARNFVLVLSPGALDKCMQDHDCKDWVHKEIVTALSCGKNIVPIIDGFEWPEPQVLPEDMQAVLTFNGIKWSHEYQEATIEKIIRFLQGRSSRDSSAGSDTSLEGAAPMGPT
Experimental: NRK1-HEK293T cells were seeded at approximately 10 × 10^6 cells/plate into 150 mm culture dishes containing 25 mL of growth medium. […] At the time of transfection, 250 µL of nicotinamide riboside (100 mM) was added to each dish to minimize toxicity from SAM-TIR overexpression. 48 hours after the transfection, the cells were washed three to four times with cold PBS and collected. The cells were resuspended in 0.5 mL of PBS containing protease inhibitors. Cell lysates were prepared by sonication. The lysate was centrifuged at 12500 rpm for 10 min at 4°C to remove cell debris, and protein concentration was determined by bicinchoninic acid (BCA) assay and used to normalize lysate concentration. The aliquots of supernatant were stored at -80°C until use.
• 1) Transfer the compound dilutions into an assay plate by Echo 650; • 2) Add 10µl 2× SAM-TIR lysate to each well; • 3) Seal the assay plate, centrifuge at 1000rpm for 1min, and incubate at 25°C for 30min; • 4) Add 10µl 2× NAD to each well; • 5) Centrifuge at 1000rpm for 1min, and incubate at 25°C for 3h; • 6) Add 40µL trichloroacetic acid to each well to terminate the reaction, mix and shake for 30s, and centrifuge at 4000rpm for 10min; • 7) Take 40µL supernatant from each well and add appropriate amount of ammonia water to adjust the pH; • 8) Detect nicotinamide adenine dinucleotide (NAD) and adenosine diphosphate ribose (ADPR) by HPLC-MS/MS.

[1] = Liver microsomal stability in vitro; type: in vitro ADME; settings: liver microsomes, NADPH, 37 °C, 0-45 min
Experimental: 100 mM K-Mg-buffer containing 5 mM MgCl2 was preheated. The spiking solution was prepared by adding 5 µL of 10 mM compound and reference stock solution to 95 µL of acetonitrile (ACN). 1.5 µL of 500 µM spiking solution and 18.75 µL of 20 mg/mL liver microsomes were added to 479.8 µL of K-Mg-buffer. NADPH stock solution (3 mM) was prepared by dissolving NADPH in K-Mg-buffer. 30 µL of 1.5 µM spiking solution containing microsomes was evenly dropped into the assay plate at different time points (0, 5, 15, 30, and 45 min), and pre-incubated at 37 °C for 5 min. At 0 min, 200 µL of ACN containing IS (internal standard, tolbutamid/terfenadine) was added to the wells, then 15 µL of NADPH stock solution (6 mM) was added. For the other time points, the reaction was initiated and timed by adding 15 µL of NADPH stock solution (6 mM) to the wells. The reaction was stopped by adding 200 µL of ACN containing IS to the corresponding plate wells at 5, 15, 30, and 45 min, respectively. After quenching, the plate was shaken at 600 rpm for 10 min and then centrifuged at 4000 rpm for 50 min. 80 µL of supernatant per well was pipetted to a 96-well sample plate containing 160 µL of pure water for UPLC/MS/MS analysis.

[2] = Cell membrane permeability (cell monolayer, A to B and B to A); type: in vitro ADME; settings: 120 min, 37°C; for Papp A→B at 2 h, 10 µM: A to B
Experimental: Test compounds were diluted from 10 mM stock solution to a concentration of 10 µM in transport buffer (HBSS + BSA) and applied to the apical or basolateral side of the cell monolayer. The permeability of the test compounds was determined in both direction of from A to B and B to A directions after 120 min incubation at 37°C, 5% CO2 and 95% relative humidity. In addition, the efflux ratio of each compound was determined. The analyte and reference compounds were quantified by LC-MS/MS based on the analyte/IS peak area ratio.

[3] = Kinetic solubility evaluation; type: physicochemical; settings: pbs, pH 7.4, aqueous buffer
Experimental: 10 mM stock solution was prepared by dissolving the test compound in DMSO. 100 mM K2HPO4 solution was prepared by adding 8.71 g K2HPO4 to 500 mL deionized water. 100 mM KH2PO4 solution was prepared by adding 2.05 g KH2PO4 to 150 mL deionized water. 405 mL of 100 mM K2HPO4 and 95 mL of 100 mM KH2PO4 were mixed and adjusted to pH 7.4 with 100 mM K2HPO4/KH2PO4 solution.
16 µL of 10 mM compound stock solution was added to 784 µL of PBS buffer (n = 3) by 96 well plate, and the plate was sealed and shaken at 25°C, 1000 rpm for 1.5 h. After incubation, the solution was transferred to a filter plate. All samples were filtered. 5 µL of the filtrate was taken, added to 5 µL of DMSO and 490 µL acetonitrile aqueous solution containing internal standard (1:1) and mixed. Then the mixed solution was diluted with acetonitrile aqueous solution containing internal standard (1:1) according to the properties of the compound and its response in the mass spectrometer. The dilution factor was adjusted according to the solubility value and UPLC-MS/MS signal response.

[4] = Pharmacokinetic evaluation in mice; type: in vivo, CD1 mice; settings: plasma
Experimental: The test compound was dissolved in the vehicle to prepare a clear solution or a homogeneous suspension. Three mice (CD1 mice) per group were administered 2 mg/kg via the tail vein and 10 mg/kg orally (PO). Blood was collected at 0.083 h, 0.25 h, 0.5 h, 1 h, 2 h, 4 h, 8 h, and 24 h after intravenous administration, and at 0.083 h, 0.25 h, 0.5 h, 1 h, 2 h, 4 h, 8 h and 24 h after oral administration. Plasma samples were centrifuged, and the supernatant was collected to prepare samples for quantitative analysis by LC/MS/MS. Conclusion: At least some of the compounds of the present application (e.g., compound 25) have excellent pharmacokinetic properties in mice (including but not limited to Cl (clearance rate), T1/2 (half-life), Cmax (peak concentration), AUC (area under the drug-time curve), F (bioavailability), etc.). Table 6 The mouse PK properties of compound 25

[5] = In vivo brain permeability (plasma and cerebrospinal fluid PK); settings: CD1 mice, PO 10 mg/kg; for AUC(0-inf) / Cmax / Tmax / half-life: mouse
Experimental: The test compound was dissolved in the vehicle to prepare a clear solution or a homogeneous suspension. Three mice (CD1 mice) per group were orally administered (PO) at 10 mg/kg. Plasma and cerebrospinal fluid were collected at 1 h, 4 h, and 8 h after oral administration and quantitatively analyzed by LC/MS/MS. Conclusion: At least some of the compounds of the present application have reached very high levels of Cmax and AUC in cerebrospinal fluid and have good in vivo brain permeability. […] Table 7 Plasma and cerebrospinal fluid PK of compound 25

mouse primary neurons = assay: Neuronal injury model based on mouse primary neurons (axotomy, TUJ1 staining); type: cell-based; settings: 0.3 µM, compared with the control I-5; axotomy at DIV 10, Figure 1
Experimental: Methods: Neocortices were dissected from the brains of newborn mice at DIV 0 (Day In Vitro 0), digested with 0.05% (w/v) trypsin/EDTA, and incubated at 37°C for 10 min. Neuronal cells obtained after digestion were seeded in cell culture dishes preincubated with poly-D-lysine in Neurobasal/B-27 medium (Neurobasal medium supplemented with 1% (v/v) B-27, 2 mM glutamine, 100 U/ml penicillin, and […] streptomycin). Starting from DIV 3, a half of the medium was replaced with fresh Neurobasal/B-27 medium every two days. At DIV 10, the cultures were subjected to axotomy and compound administration. The cells were fixed with 4% paraformaldehyde the day after axotomy and subjected to cell immunofluorescence staining for TUJ1. Confocal imaging of axons was performed using a Zeiss LSM710 laser confocal microscope.

sciatic nerve = assay: Mouse sciatic nerve axotomy (SNA) model; type: in vivo; settings: mice, Figure 2
From the text: Methods: Mice were anesthetized with isoflurane, and the skin of the right hind limb was shaved and sterilized with iodine. An incision was made between the knee and hip joints, and the gluteal muscle was carefully separated using a pair of sterile surgical scissors. The sciatic nerve was cut proximally to the thigh with a pair of sterile surgical scissors, and a 1-2 mm segment of the nerve was removed to prevent axonal regeneration into the distal stump. The gluteal muscle was then placed back to its original anatomical position, and the overlying skin was reattached with surgical staples or sutures.
To examine the denervation of the neuromuscular junction (NMJ), the tibialis anterior muscles were dissected from perfused animals and fixed overnight with 4% paraformaldehyde/PBS at 4°C. Immunohistochemical staining was subsequently performed with Neurofilament-L antibody and Synapsin-1 antibody as well as acetylcholine receptor (AchR) markers. Finally, imaging was performed by laser confocal microscope Zeiss LSM710.

## O=C1C(Cc2cc(F)c(Cl)c(F)c2)CCN1c1nc2ccc3cnccc3c2[nH]1 (centres unmarked) [Cpd. 4]
SARM1
  pIC50: > 6.82
[1]
  half-life: 0.481 h
[2]
  efflux ratio at 2 h, 10 µM: 1.15
  Papp A→B at 2 h, 10 µM: 11 ×10⁻⁶ cm/s

## O=C1C(Cc2ccc(Cl)c(F)c2)CCCN1c1nc2c([nH]1)COc1cnccc1-2 (centres unmarked) [Cpd. 25]
SARM1
  pIC50: > 6.82
[3]
  solubility at […]: > 50 µg/mL
[1]
  half-life: 0.435 h
[2]
  efflux ratio at 2 h, 10 µM: 0.9
  Papp A→B at 2 h, 10 µM: 7.56 ×10⁻⁶ cm/s
[4]; mouse IV (2 mg/kg)
  AUC(0-inf): 2210 ng·h/mL
  C0: 2110 ng/mL
  clearance: 15.1 mL/min/kg
  half-life: 1.33 h
[4]; mouse IV (2 mg/kg), read-out: Vss
  Vd: 1.31 L/kg
[4]; mouse PO (10 mg/kg)
  AUC(0-inf): 9820 ng·h/mL
  Cmax: 3000 ng/mL
  Tmax: 0.417 h
  half-life: 1.84 h
[4]; mouse PO (10 mg/kg) vs IV (2 mg/kg)
  bioavailability: 89%
[5]
  AUCbrain/AUCplasma: 0.71
[5]; Cerebrospinal fluid PK
  AUC(0-inf): 6900 ng·h/mL
  Cmax: 2200 ng/mL
  Tmax: 1 h
  half-life: 1.41 h
[5]; Plasma PK
  AUC(0-inf): 9700 ng·h/mL
  Cmax: 3090 ng/mL
  Tmax: 1 h
  half-life: 1.4 h
Mouse primary neurons
  neuron-protecting activity (axonal loss after axonal injury): stronger neuron-protecting activity
Sciatic nerve
  protection of axons from injury-induced axonal degeneration: significantly protect axons from injury-induced axonal degeneration

## O=C1C(Cc2ccc(Cl)c(F)c2)CCCN1c1nc2c(ccc3cnccc32)o1 (centres unmarked) [Cpd. 21]
SARM1
  pIC50: 6.30 to 6.82

## O=C1C(Cc2ccc(Cl)c(F)c2)CCN1c1nc2ccc3cnccc3c2[nH]1 (single isomer, unassigned) [Cpd. 19]
SARM1
  pIC50: > 6.82

## O=C(CCc1cnc(Cl)c(F)c1)Nc1nc2ccc3cnccc3c2[nH]1 [Cpd. 10]
SARM1
  pIC50: 6.30 to 6.82
[1]
  half-life: 0.352 h

## O=C1C(Cc2ccc(Cl)cc2)CCN1c1nc2ccc3cnccc3c2[nH]1 (centres unmarked) [Cpd. 2]
SARM1
  pIC50: > 6.82

## O=C(CCc1ccc(Cl)c(F)c1)Nc1nc2ccc3cnccc3c2[nH]1 [Cpd. 9]
SARM1
  pIC50: > 6.82
[1]
  half-life: 0.328 h

## O=C1C(Cc2ccc(Cl)c(F)c2)CCN1c1nc2c([nH]1)COc1cnccc1-2 (centres unmarked) [Cpd. 24]
SARM1
  pIC50: > 6.82

## O=C1C(Cc2ccc(F)c(Cl)c2)CCN1c1nc2ccc3cnccc3c2[nH]1 (centres unmarked) [Cpd. 3]
SARM1
  pIC50: 6.00 to 6.30

## O=C(CCc1ccc(Cl)cc1)Nc1nc2ccc3cnccc3c2[nH]1 [Cpd. 8]
SARM1
  pIC50: > 6.82

## O=C1C(Cc2ccc(Cl)c(F)c2)CCN1c1nc2c(ccc3cnccc32)o1 (centres unmarked) [Cpd. 20]
SARM1
  pIC50: > 6.82
